The values below come from patent US6451820B1, “Substituted 1-(4-aminophenly)triazoles and their use as anti-inflammatory agents” (Boehringer Ingelheim Pharmaceuticals, Inc., priority 2000, dated 2002).

The structures appear in SMILES notation. Like-named read-outs stand apart in the source and are kept apart here.

In this assay the test system is IL-2 promoter/enhancer. Description: IL-2 promoter assay (luciferase reporter in J.1F/C6 Jurkat cells). The class given is cell-based. The note with it: Homo sapiens. The text has this:
The IL-2 promoter assay measures transcriptional activation of a luciferase reporter gene which has been placed under control of the IL-2 promoter/enhancer. All the known regulatory features of the IL-2 gene are contained within a ˜300 bp sequence immediately upstream of the open reading frame. The region −328 to +35 relative to the transcription start site of the IL-2 gene is obtained by […] of human genomic DNA and is subcloned into the promoterless luciferase reporter vector pGL2-Basic (Promega). The resulting construct, pIL2P-luc, and a vector containing a neomycin resistance gene, pcDNA/Neo (Invitrogen), are linearized and stably transfected into Jurkat cells (a human T cell line) by electroporation.
For screening compounds, the cells are pelleted by centrifugation, washed once with PBS, resuspended in RPMI (phenol red-free) containing 5% FBS, and dispensed into 96-well, white microtiter plates (Packard) at 50,000 cells/well. The cells are pre-incubated with compounds (1 μg/ml) for 15 min prior to addition of ionomycin (1 μg/ml) and PMA (10 ng/ml) in a final volume of 100 μl. Following a 5 hr incubation at 37° C. in a humidified incubator, 100 μl of Luc-Lite lysis buffer/luciferase assay buffer (Promega) is added and luminescence measured using a Packard TopCount scintillation counter/luminometer.

The mark [1] stands for this setting: J.1F/C6 Jurkat cells stimulated with ionomycin and PMA, luciferase reporter, read-out: IC50.

Broadly, the IC50 is the midpoint of a concentration-inhibition curve. With `CSc1nc(-c2ccncc2)nn1-c1ccc(NC(=O)c2cccnc2)cc1` [Example 1], the IC50 under setting [1] was less than 10 µM.

In the case of `CSc1nc(-c2ccncc2)nn1-c1ccc(NCc2sccc2C)cc1` [Example 2, (3-Methylthien-2-ylmethyl)-[4-(5-methylthio-3-pyridin-4-yl-1H-1,2,4-triazol-1-yl)phenyl]amine], the IC50 under setting [1] is less than 10 µM.

Turning to `C=CC[C@@H]1/C=C(\C)C[C@H](C)C[C@H](OC)[C@H]2O[C@@](O)(C(=O)C(=O)N3CCCC[C@H]3C(=O)O[C@H](/C(C)=C/[C@@H]3CC[C@@H](O)[C@H](OC)C3)[C@H](C)[C@@H](O)CC1=O)[C@H](C)C[C@@H]2OC` [FK506, reference compound], the IC50 (J.1F/C6 Jurkat cells treated with ionomycin and PMA, cell line validation, read-out: IC50, inhibition of luciferase activity) turned out to be 0.0003 µM.
